Data: the supplement of paper PMC8253809

How the values were obtained:
[1] = tested on: DIPGX7 (H3.3 K27M diffuse intrinsic pontine glioma line); assay: maximal growth inhibition (yFin) relative to DMSO / staurosporine; higher = more efficacious
Method in brief: (§1)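 Viability readout was CellTiter-Glo luminescence, log2-transformed, normalised per plate to % activity between negative (solvent) and positive control wells, then pooled. This followed a 7-day exposure (3 days for iAstro) at 37 °C, 5% CO2 to a 10-point threefold dilution series (mean top concentration 35 μM), pin-tool delivered in triplicate to patient-derived pHGG/DIPG cell lines and astrocyte controls on 1% Geltrex-coated 384-well plates. Three- and four-parameter log-logistic fits were compared, and the one with the lowest AICc supplied EC50 and maximal response (yFin).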

[2] = tested on: SUDIPGVI (diffuse intrinsic pontine glioma line); assay: as above
Method in brief: as §1

[3] = tested on: HGGX2 (paediatric high-grade glioma line); assay: as above
Method in brief: as §1

[4] = tested on: iAstro (astrocyte control); assay: as above
Method in brief: as §1

[5] = tested on: SUDIPGXIII (diffuse intrinsic pontine glioma line); assay: as above
Method in brief: as §1

[6] = tested on: DIPGX9 (diffuse intrinsic pontine glioma line); assay: as above
Method in brief: as §1

[7] = tested on: DIPGX37 (H3.3 K27M diffuse intrinsic pontine glioma line); assay: as above
Method in brief: as §1

[8] = tested on: HGGX6 (H3.3 G34R paediatric high-grade glioma line); assay: as above
Method in brief: as §1

[9] = tested on: SUDIPGIV (diffuse intrinsic pontine glioma line); assay: as above
Method in brief: as §1

[10] = tested on: HABS (astrocyte control); assay: as above
Method in brief: as §1

[11] = tested on: SUDIPGXXI (diffuse intrinsic pontine glioma line); assay: as above
Method in brief: as §1

[12] = tested on: HGGX39 (paediatric high-grade glioma line); assay: as above
Method in brief: as §1

[13] = tested on: SUDIPGXVII (diffuse intrinsic pontine glioma line); assay: as above
Method in brief: as §1

[14] = tested on: DIPGX29 (H3.3 K27M diffuse intrinsic pontine glioma line); assay: as above
Method in brief: as §1

[15] = tested on: HGGX42 (H3.3 G34R paediatric high-grade glioma line); assay: as above
Method in brief: as §1

[16] = tested on: SUDIPGXIX (diffuse intrinsic pontine glioma line); assay: as above
Method in brief: as §1

[17] = tested on: HGGX42; assay: area under dose-response curve of % growth inhibition (log2 RLU vs DMSO / staurosporine), 1e-11 to 1e-4 M (% x log10 M); higher = more growth inhibition
Method in brief: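 Patient-derived pHGG/DIPG cell lines and astrocytes, cultured on 384-well plates with a 1% Geltrex coating, were given a 10-point threefold dilution series (mean top concentration 35 μM) in triplicate for 7 days (iAstro 3 days) at 37 °C, 5% CO2. CellTiter-Glo signal, log2-transformed and normalised per plate to % activity against solvent and positive controls, was fitted with a log-logistic curve or, where the sigmoid fit failed, a smoothing spline. Area under the curve was then computed by the trapezoid rule.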

Row | Structure (SMILES) | maximal growth inhibition [1] | maximal growth inhibition [2] | maximal growth inhibition [3] | maximal growth inhibition [4] | maximal growth inhibition [5] | maximal growth inhibition [6] | maximal growth inhibition [7] | maximal growth inhibition [8] | maximal growth inhibition [9] | maximal growth inhibition [10] | maximal growth inhibition [11] | maximal growth inhibition [12] | maximal growth inhibition [13] | maximal growth inhibition [14] | maximal growth inhibition [15] | maximal growth inhibition [16] | area under dose-response curve [17]
1 | CC(=O)c1cc([N+](=O)[O-])c(Sc2ccc(F)cc2F)s1 | 117% | 94.1% | 106% | 89.1% | 104% | 109% | 112% | 104% | 104% | 37.7% | 113% | 24.6% | 74.3% | 115% | 108% | 118% | 84
2 | CC(C)(C)c1cnc(CSc2cnc(NC(=O)C3CCNCC3)s2)o1 | 113% | 82.8% | 57% | 27.2% | 92.1% | 104% | 86.8% | 83.9% | 103% | 45.9% | 110% | 84.8% | 95.8% | 84% | 87.2% | 116% | 216
3 | CC(C)c1c2cc(-c3ccnc(NC4CCC(NC5CCOCC5)CC4)n3)ccc2nn1C (stereo not given) | 93.3% | 84% | 75.2% | 26.6% | 89.3% | 89.5% | 81.2% | 78% | 90.4% | 44.3% | 99.9% | 83.2% | 89.7% | 84.4% | 82% | 91.6% | 252
4 | CC(C)c1cc(C(=O)N2Cc3ccc(CN4CCN(C)CC4)cc3C2)c(O)cc1O | 78.3% | 51.6% | 54.4% | 31.4% | 51.9% | 94.9% | 92.6% | 34.9% | 56.5% | 108% | 105% | 105% | 67.2% | 105% | 65% | 77.2% | 131
5 | COc1cc(F)ccc1-c1ncnc(Nc2cccc(CS(C)(=N)=O)c2)n1 (stereo not given) | 110% | 89.8% | 57.3% | 24.7% | 87% | 103% | 76.2% | 84.1% | 97.4% | 56.8% | 114% | 68% | 94.9% | 78.9% | 67% | 100% | 134
6 | Cc1ccc2nc(NCCN)c3ncc(C)n3c2c1 | 92.7% | 70.6% | 45.5% | 26.6% | 73.5% | 98.5% | 86.6% | 81.8% | 91.6% | 58.1% | 117% | 57.7% | 88.5% | 88.2% | 83.9% | 85.2% | 83.7
7 | O=C(c1ccccc1)c1ccc2nc(NC(=O)c3csc(C4CCN(c5ncnc6ccsc56)CC4)n3)[nH]c2c1 | 89.8% | 45.9% | 51.9% | 64.8% | 50.1% | 44.1% | 38.4% | 36% | 27.7% | 35.8% | 111% | 29.6% | 28.2% | 62.1% | 48.7% | 112% | 72.8
8 | c1ccc2c(-c3cnn4cc(-c5ccc(N6CCNCC6)cc5)cnc34)ccnc2c1 | 106% | 105% | 104% | 93.5% | 105% | 108% | 99% | 92.8% | 107% | 108% | 119% | 88.9% | 107% | 95.2% | 102% | 113% | 171
9 | COc1ccc(C[C@H](NC(=O)[C@H](C)NC(=O)CN2CCOCC2)C(=O)N[C@@H](Cc2ccccc2)C(=O)C2(C)CO2)cc1 (stereo in doubt) [ONX-0914] | 97.5% | 85.8% | 87.4% | 73.5% | 89.5% | 96.9% | 95.7% | 92.2% | 89.7% | 94.2% | 93.9% | 91.9% | 91.8% | 71.9% | 68% | 95% | 186
10 | CCN1CCN(Cc2ccc(Nc3ncc(F)c(-c4cc(F)c5nc(C)n(C(C)C)c5c4)n3)nc2)CC1 [ABEMACICLIB] | 110% | 48.9% | 42.3% | 59% | 52.5% | 43.3% | 99.9% | 69.4% | 76.8% |  | 96.9% | 84.4% | 61.1% | 38.4% | 30.7% | 110% | 83.9
11 | CN(C)C/C=C/C(=O)Nc1cc2c(Nc3ccc(F)c(Cl)c3)ncnc2cc1O[C@H]1CCOC1 [AFATINIB] | 110% | 111% | 109% | 92.5% | 92.1% | 118% | 95.5% | 93.5% | 111% | 101% | 120% | 93.2% | 109% | 91.2% | 108% | 120% | 108
12 | COCC1(CO)C(=O)C2CCN1CC2 (stereo not given) [APR-246] | 102% | 102% | 97.9% | 90.9% | 97.3% | 105% | 111% | 90.1% | 105% |  | 112% |  | 99% | 106% | 99.8% | 96.4% | 72
13 | O=C(Nc1c[nH]nc1-c1nc2ccc(CN3CCOCC3)cc2[nH]1)NC1CC1 [AT9283] | 110% | 101% | 96.7% | 27.5% | 97.8% | 109% | 107% | 97.8% | 99.7% | 94% | 114% | 91.6% | 102% | 108% | 104% | 112% | 178
14 | CC(=O)OC[C@H]1O[C@@H]([S-])[C@H](OC(C)=O)[C@@H](OC(C)=O)[C@@H]1OC(C)=O.CCP(CC)CC.[Au+] [AURANOFIN] | 119% | 114% | 110% | 106% | 113% | 118% | 90.9% | 92.2% | 117% | 113% | 122% | 107% | 117% | 93.1% | 116% | 118% | 243
15 | CN1[C@@H]2CC[C@H]1C[C@@H](OC(=O)c1cc(Cl)cc(Cl)c1)C2 [BEMESETRON] | 90.5% |  | 49.4% | 36.1% |  | 43.8% | 102% | 63.8% | 77.1% | 20.8% | 104% | 81.4% | 44.2% | 89.8% | 86.2% | 77.2% | 119
16 | CC(C)C[C@H](NC(=O)[C@H](CCc1ccccc1)NC(=O)CN1CCOCC1)C(=O)N[C@@H](Cc1ccccc1)C(=O)N[C@@H](CC(C)C)C(=O)[C@@]1(C)CO1 [CARFILZOMIB] | 92% | 95.3% | 97.2% | 87.1% | 105% | 115% | 98.9% | 91.3% | 98.6% | 108% |  | 107% | 105% | 96.2% | 77% | 116% | 213
17 | Cc1noc2c1-c1ccccc1C(c1ccc(Cl)cc1)=N[C@H]2CC(N)=O [CPI-0610] | 116% | 106% | 69.1% | 39% |  | 113% |  | 41.6% | 75.1% | 72.8% | 116% | 109% | 63.3% | 90.8% | 80.1% | 127% | 110
18 | CCCc1cc(C)[nH]c(=O)c1CNC(=O)c1cc(-c2ccnc(N3CCN(C)CC3)c2)cc2c1cnn2C(C)C [GSK343] | 114% | 112% | 113% | 66.2% | 87.9% | 123% | 122% | 111% | 74.3% | 69% | 126% | 20.4% |  | 120% | 115% | 125% | 98.2
19 | C=CCn1c(=O)c2cnc(Nc3ccc(N4CCN(C)CC4)cc3)nc2n1-c1cccc(C(C)(C)O)n1 [MK-1775] | 25% |  | 31% | 36.6% |  | 41.4% | 22.2% | 24.9% | 46.7% | 26.7% | 91.8% | 43.8% | 25.1% | 39.2% | 34.5% | 37.7% | 53.5
20 | COc1ncc(-c2ccc3nccc(-c4ccnnc4)c3c2)cc1NS(=O)(=O)c1ccc(F)cc1F [OMIPALISIB] |  | 112% | 105% | 41.1% | 108% | 104% | 116% | 110% | 110% | 101% | 118% | 115% | 111% | 105% | 99.4% | 108% | 237
21 | CCOc1cc(C(C)(C)C)ccc1C1=N[C@@](C)(c2ccc(Cl)cc2)[C@@](C)(c2ccc(Cl)cc2)N1C(=O)N1CCN(CCCS(C)(=O)=O)CC1 [RG7112] | 70.5% | 35.2% | 101% | 82.6% | 61.6% | 109% |  | 86.4% | 55.8% | 108% | 115% | 96.2% | 102% | 93.2% | 94.2% | 113% | 76
22 | C=CCNC1=C2C[C@@H](C)C[C@H](OC)[C@H](O)[C@@H](C)/C=C(\C)[C@H](OC(N)=O)[C@@H](OC)/C=C\C=C(/C)C(=O)NC(=CC1=O)C2=O [TANESPIMYCIN] |  | 39.8% | 84.8% | 39.3% | 73.1% | 108% | 104% | 33.9% | 72.4% | 114% | 122% | 97.3% | 74.7% | 70% | 50.5% | 92.1% | 103
